Assay results from ChEMBL document CHEMBL5223163, “In the Quest for Potent and Selective Malic Enzyme 3 Inhibitors for the Treatment of Pancreatic Ductal Adenocarcinoma” (ACS Med Chem Lett, 2023).

Assays:
[1] = molecular target: T1, NADP-dependent malic enzyme (Homo sapiens, UniProt P48163); test: (§1) Inhibition of His-tagged human recombinant full length ME1 using L-malate and beta-NADP+ as substrate preincubated with enzyme for 5 mins followed by beta-NADP+ challenge and incubated under shaking for 5 mins followed by incubation for 2 hrs without shaking by resorufin dye based fluorescence analysis
T1 sequence (P48163 whole entry): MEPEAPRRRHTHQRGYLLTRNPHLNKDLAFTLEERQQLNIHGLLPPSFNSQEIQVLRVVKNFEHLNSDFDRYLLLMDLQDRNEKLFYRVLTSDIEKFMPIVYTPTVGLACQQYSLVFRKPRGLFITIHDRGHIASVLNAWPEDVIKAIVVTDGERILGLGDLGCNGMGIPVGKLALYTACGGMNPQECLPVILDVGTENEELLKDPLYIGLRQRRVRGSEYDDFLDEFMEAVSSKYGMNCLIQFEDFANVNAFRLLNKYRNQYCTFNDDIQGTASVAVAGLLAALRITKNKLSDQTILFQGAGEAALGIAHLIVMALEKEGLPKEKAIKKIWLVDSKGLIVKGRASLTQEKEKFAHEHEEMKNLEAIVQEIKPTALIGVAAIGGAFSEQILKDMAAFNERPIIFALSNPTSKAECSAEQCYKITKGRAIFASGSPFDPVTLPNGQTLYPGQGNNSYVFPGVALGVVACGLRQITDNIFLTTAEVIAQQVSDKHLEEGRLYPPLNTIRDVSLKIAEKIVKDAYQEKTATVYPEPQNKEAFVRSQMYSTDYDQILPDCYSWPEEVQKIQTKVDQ

[2] = molecular target: NAD-dependent malic enzyme, mitochondrial (Homo sapiens, UniProt P23368); test: as §1, with “ME2” for “ME1”, “beta-NAD+” for “beta-NADP+”
[3] = molecular target: T2, NADP-dependent malic enzyme, mitochondrial (Homo sapiens, UniProt Q16798)
T2 sequence (Q16798 whole entry): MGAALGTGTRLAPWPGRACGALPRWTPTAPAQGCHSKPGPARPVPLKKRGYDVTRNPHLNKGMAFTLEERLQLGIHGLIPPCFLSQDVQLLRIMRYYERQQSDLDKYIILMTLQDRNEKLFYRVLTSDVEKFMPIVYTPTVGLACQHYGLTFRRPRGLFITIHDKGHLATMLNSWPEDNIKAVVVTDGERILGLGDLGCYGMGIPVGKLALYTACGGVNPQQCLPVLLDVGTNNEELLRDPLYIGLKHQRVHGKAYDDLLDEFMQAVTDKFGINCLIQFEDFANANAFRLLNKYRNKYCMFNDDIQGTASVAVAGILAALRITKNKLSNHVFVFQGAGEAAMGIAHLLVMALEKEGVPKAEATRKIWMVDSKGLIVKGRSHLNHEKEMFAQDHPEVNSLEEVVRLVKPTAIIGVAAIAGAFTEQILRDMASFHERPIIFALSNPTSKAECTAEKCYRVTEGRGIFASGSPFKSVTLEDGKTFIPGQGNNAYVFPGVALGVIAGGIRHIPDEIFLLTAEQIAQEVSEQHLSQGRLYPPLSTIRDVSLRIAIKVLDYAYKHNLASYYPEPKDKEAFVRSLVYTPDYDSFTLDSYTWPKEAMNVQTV
Description: (§2) Inhibition of His-tagged human recombinant ME3 (26 to 604 residues) using L-malate and beta-NADP+ as substrate preincubated with enzyme for 5 mins followed by beta-NADP+ challenge and incubated under shaking for 5 mins followed by incubation for 3 hrs without shaking by resorufin dye based fluorescence analysis

[4] = test system: BXPC-3; test: cells; conditions: Homo sapiens, BXPC-3, 72 h, read-out: INH
Description: Antiproliferative activity against SMAD4/ME2-null human BXPC-3 cells assessed as inhibition of cell growth at 10 uM incubated for 72 hrs by CellTiter-Glo luminescence assay

[5] = Selectivity for SMAD4/ME2-null human BXPC-3 cells over human HCE-T cells
[6] = test system: BXPC-3; test: cells; conditions: Homo sapiens, BXPC-3, 72 h
Description: Antiproliferative activity against SMAD4/ME2-null human BXPC-3 cells assessed as inhibition of cell growth incubated for 72 hrs by CellTiter-Glo luminescence assay

[7] = molecular target: T3, NADP-dependent malic enzyme, mitochondrial (Homo sapiens) (UniProt Q16798); conditions: dose 0.1 µM, time 190.0 min
T3 sequence (whole entry): T2 sequence (Q16798 whole entry)

[8] = test system: BXPC-3; test: Antiproliferative activity against SMAD4/ME2-null human BXPC-3 cells assessed as inhibition of cell growth at 1 uM incubated for 72 hrs by CellTiter-Glo luminescence assay; type: functional
[9] = Lipophilicity, log P of the compound; type: physicochemical; conditions: octanol/water
[10] = Cytotoxicity against human HCE-T cells assessed as inhibition of cell growth; type: toxicity, cell-based
[11] = molecular target: T2, NADP-dependent malic enzyme, mitochondrial; remark: listed apart in the source
Description: as §2

[12] = molecular target: T3, NADP-dependent malic enzyme, mitochondrial (Homo sapiens); conditions: BXPC-3, Lysates, dose 100.0 µM, time 2.0 hrs
[13] = test system: HUVEC; test: Cytotoxicity against human HUVEC cells assessed as inhibition of cell growth; type: toxicity, cell-based
[14] = molecular target: T3, NADP-dependent malic enzyme, mitochondrial (Homo sapiens); conditions: BXPC-3, dose 100.0 µM, time 24.0 hrs

Chain of NAD-dependent malic enzyme, mitochondrial (P23368 whole entry): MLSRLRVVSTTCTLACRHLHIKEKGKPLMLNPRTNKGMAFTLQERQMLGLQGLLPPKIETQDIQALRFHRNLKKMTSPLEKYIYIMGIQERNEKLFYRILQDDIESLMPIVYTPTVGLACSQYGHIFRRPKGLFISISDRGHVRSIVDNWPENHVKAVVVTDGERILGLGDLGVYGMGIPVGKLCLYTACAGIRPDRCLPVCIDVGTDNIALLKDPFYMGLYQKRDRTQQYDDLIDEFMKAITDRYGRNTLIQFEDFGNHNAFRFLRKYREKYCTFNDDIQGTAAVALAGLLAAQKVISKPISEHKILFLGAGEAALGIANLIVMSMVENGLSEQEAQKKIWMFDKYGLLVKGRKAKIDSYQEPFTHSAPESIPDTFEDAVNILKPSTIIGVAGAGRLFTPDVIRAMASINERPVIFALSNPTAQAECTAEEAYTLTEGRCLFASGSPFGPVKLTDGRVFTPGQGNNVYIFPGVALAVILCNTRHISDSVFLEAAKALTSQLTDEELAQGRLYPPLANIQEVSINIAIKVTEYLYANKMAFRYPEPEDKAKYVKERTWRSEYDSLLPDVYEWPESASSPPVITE

Compound: O=C(Nc1nnn[nH]1)C1c2ccccc2OC2C=CC=CC21 (stereo unspecified)
- IC50 ([1]; read-out: IC50): 220 nM
- IC50 ([2]; read-out: IC50): 200 nM
- IC50 [3]: 21000 nM

Compound: CCCCOc1ccc(CCC(=O)N2CCN(c3ccc(O)cn3)CC2)cc1
- IC50 ([1]; read-out: IC50): 1310 nM
- inhibition at 10 µM [4]: 7%
- IC50 ([2]; read-out: IC50): 3900 nM
- Selectivity ratio [5]: 5
- IC50 [3]: 390 nM
- IC50 [6]: 15 µM

Compound: CC(=O)N1CCN(c2ccc(O)cn2)CC1
- inhibition [7]: 23%
- inhibition at 10 µM [4]: 0%
- inhibition at 1 µM [8]: 0%

Compound: O=C(Cc1ccc(Cl)cc1)N1CCN(c2ccc(O)cc2)CC1
- IC50 ([1]; read-out: IC50): 150 nM
- inhibition at 10 µM [4]: 80%
- IC50 ([2]; read-out: IC50): 150 nM
- Selectivity ratio [5]: 5
- IC50 [3]: 130 nM
- IC50 [6]: 5.7 µM

Compound: O=C(C1CC1)N1CCN(c2ccc(O)cn2)CC1
- inhibition [7]: 14%
- inhibition at 10 µM [4]: 10%
- inhibition at 1 µM [8]: 0%

Compound: O=C(Cc1ccc(C(F)(F)F)cc1)N1CCN(c2ccc(O)cc2)CC1
- IC50 ([1]; read-out: IC50): 210 nM
- inhibition at 10 µM [4]: 39%
- IC50 ([2]; read-out: IC50): 410 nM
- Selectivity ratio [5]: 5
- IC50 [3]: 330 nM

Compound: CC(C)(CC(=O)N1CCN(c2ccc(O)cn2)CC1)c1ccccc1
- IC50 ([1]; read-out: IC50): 2370 nM
- inhibition at 10 µM [4]: 99%
- IC50 ([2]; read-out: IC50): 1370 nM
- logP [9]: 3.41
- Selectivity ratio [5]: 5
- IC50 [3]: 150 nM
- IC50 [6]: 3.5 µM
- IC50 [10]: > 30 µM

Compound: COc1ccc(N2CCN(C(=O)CCc3ccccc3)CC2)nc1
- inhibition at 10 µM [4]: 13%

Compound: O=C(Nc1ccccc1)C1CCN(c2ccc(O)cc2)CC1
- IC50 [3]: 130 nM

Compound: O=C(CCc1cc2ccccc2s1)N1CCN(c2ccc(O)cn2)CC1
- IC50 ([1]; read-out: IC50): 1200 nM
- inhibition at 10 µM [4]: 46%
- IC50 ([2]; read-out: IC50): 1630 nM
- Selectivity ratio [5]: 5
- IC50 [3]: 240 nM

Compound: O=C(CCc1ccc(Cl)cc1)N1CCN(c2ccc(O)cn2)CC1
- IC50 ([1]; read-out: IC50): 1020 nM
- inhibition at 10 µM [4]: 71%
- IC50 ([2]; read-out: IC50): 1590 nM
- Selectivity ratio [5]: 5
- IC50 [3]: 140 nM
- IC50 [6]: 6.3 µM
- IC50 [10]: > 30 µM

Compound: O=C(Cc1ccccc1)N1CCN(c2ccc(O)nn2)CC1
- IC50 [1]: Not Active
- IC50 [11]: Not Active
- IC50 [2]: Not Active

Compound: O=C(CCc1ccccc1)N1CCN(c2ccc(O)cn2)CC1
- IC50 ([1]; read-out: IC50): 1500 nM
- ΔTm [12]: 7 °C
- inhibition at 10 µM [4]: 90%
- IC50 ([2]; read-out: IC50): 1720 nM
- Selectivity ratio [5]: 5
- Activity [13]: Non-Toxic
- ΔTm [14]: 4.9 °C
- IC50 [3]: 230 nM
- IC50 [6]: 5.1 µM
- IC50 [10]: > 30 µM

Compound: O=C(CCc1ccc(F)cc1)N1CCN(c2ccc(O)cn2)CC1
- IC50 ([1]; read-out: IC50): 1740 nM
- inhibition at 10 µM [4]: 48%
- IC50 ([2]; read-out: IC50): 1660 nM
- Selectivity ratio [5]: 5
- IC50 [3]: 410 nM

Compound: CC(C)(CC(=O)N1CCN(c2ccc(O)cn2)CC1)c1ccc(Cl)cc1
- IC50 ([1]; read-out: IC50): 1500 nM
- inhibition at 10 µM [4]: 97%
- IC50 ([2]; read-out: IC50): 2800 nM
- Selectivity ratio [5]: 5
- IC50 [3]: 360 nM
- IC50 [6]: 5.4 µM
- IC50 [10]: > 30 µM

Compound: Oc1ccc(N2CCNCC2)nc1
- inhibition [7]: 0%
- inhibition at 10 µM [4]: 12%
- inhibition at 1 µM [8]: 2%

Compound: O=C(Nc1nnn[nH]1)c1cc(-c2ccccc2)nc2ccccc12
- IC50 ([1]; read-out: IC50): 13800 nM
- IC50 ([2]; read-out: IC50): 1700 nM
- IC50 [3]: 5100 nM

Compound: O=C(Cc1ccccc1)NC1CCN(c2ccc(O)cc2)CC1
- IC50 [3]: 70 nM

Compound: O=C(Nc1ccccc1)N1CCN(c2ccc(O)cc2)CC1
- IC50 ([1]; read-out: IC50): 200 nM
- inhibition at 10 µM [4]: 28%
- IC50 ([2]; read-out: IC50): 220 nM
- Selectivity ratio [5]: 5
- IC50 [3]: 110 nM
- IC50 [6]: 31 µM
